For series [1] the following is noted: healthy subjects, approximately 21 mEq, urinary excretion; cited from earlier work.
For series [2] the following is noted: oral magnesium salts, background statement; cited from earlier work.
The nature of series [3]: Absolute bioavailability study: serum magnesium pharmacokinetics. The settings on record: fasted; for AUC0-72 / AUC0-t / Cmax: mean (SD); for Tmax: median (range). From the text:
(§1) A study has been conducted to investigate magnesium L-lactate dihydrate extended release caplets for management of magnesium-deficient patients who have experienced electrolyte imbalance due to iatrogenic or disease cause such as episodic migraine headaches. […] A study to compare the absolute bioavailability of an oral magnesium formulation compared to an IV administered magnesium sulfate including both serum and urine pharmacokinetic parameters has never been reported in the scientific literature.
(§2) Three treatment regimens (Treatments A, B, and C) were employed in the study.
(§3) Urine and blood samples were collected for pharmacokinetic (PK) analysis of urinary and serum magnesium concentrations. A total of 29 urine samples for each subject were collected continuously throughout the study for determination of fractional and daily urine magnesium concentrations, and 33 blood samples were collected from each subject for determination of serum magnesium concentrations at each time point during the study.
(§4) The PK analysis population included 29 subjects for Treatment A, 29 subjects for Treatment B, and 31 subjects for Treatment C.
(§5) The absolute bioavailability of magnesium was evaluated by comparing serum magnesium exposure (AUC0-72) or urinary magnesium excretion (Ae0-72) after oral versus IV administration.

Series [4] can be described thus: Absolute bioavailability study: urinary magnesium pharmacokinetics. The settings on record: baseline-adjusted, Treatment B: IV infusion 20 mEq over 4 hours, fasted.
From the text: as §1, §2, §3, §4, §5

For series [5] the following is noted: normal: minimum 33.9 mEq/IU; cited from earlier work.
The mark [6] stands for this setting: baseline-adjusted, Treatment B: IV infusion 20 mEq over 4 hours.
Setting [7] is: observed, Treatment B: IV infusion 20 mEq over 4 hours.

Several values for one entry are separate records, joined by “and”; a condition that tells them apart may be missing. Equal values may be shown once.

Take `[O]=[Mg]` [magnesium oxide]: the fractional absorption average in series [1] was 4%. Besides, in series [2], the bioavailability result is given as “about 2%”.

For `[Cl-].[Cl-].[Mg+2]` [magnesium chloride], the bioavailability result in series [2] is recorded as “about 20%”.

Regarding `O=S(=O)([O-])[O-].[Mg+2]` [magnesium sulfate], in series [3] (setting [6]), the AUC0-72 is 76.2 (37.9) h · μg/mL, the AUC0-t was 72.8 (35.4) h · μg/mL, the Cmax is 6.79 (1.46) μg/mL and the Tmax is given as 4.00 (2.00-6.00) h. Besides, in series [3] (setting [7]), the AUC0-72 is 1390 (121) h · μg/mL, the AUC0-t is 1390 (121) h · μg/mL and the Cmax is 25.7 (1.62) μg/mL. In addition, the Tmax in series [3] (observed, Treatment B: single IV infusion 20 mEq over 4 hours) is listed as 4.00 (2.00-6.00) h. The CLR0-72 in series [4] (median (range)) is reported as 3.57 (1.44-35.6) L/h. In series [4] (urine, mean (SD)), the Ae0-72 is given as 225 (49.5) mg; the Rmax is listed as 20.5 (4.29) mg/h; the fe0-72 is 92.7% and 92.7 (20.4) %. In addition, the “Tmax,rate” value in series [4] (urine, median (range)) was 5.00 (3.00-9.00) h.

On to magnesium gluconate, for which, in series [2], the bioavailability entry is given as “about 20%”.

On to `CC(O)C(=O)[O-].CC(O)C(=O)[O-].[Mg+2]` (stereo not drawn) [magnesium lactate, 2-hydroxypropanoic acid magnesium salt], for which, in series [5], the “effective in repleting intracellular magnesium levels to normal ranges” value is 100%.

The values are drawn from patent US9707253B2, “High-loading, controlled-release magnesium oral dosage forms and methods for making and using same” (Pharmalyte Solutions, LLC, priority 2008, dated 2017).
